# Laboratory results taken from patent US20230392121A1, “HYDROGELS FOR CELL CULTURE” (KATHOLIEKE UNIVERSITEIT LEUVEN, priority 2020, published 2023).
# Where two headings read alike, the source gives them in different places.
# What was measured:
# [1] = system: HepMat co-cultures; assay: Co-treatment of HepMat co-cultures with OA & OCA or OA & ELN; format: cell-based, human; settings: 800 μM OA with 1 μM OCA or 30 μM ELN, 3 days
# Protocol: A similar effect was observed on proinflammatory parameters.
# (§1) Oleic acid (OA) exposure of HepMat-co-cultures and mono-cultures: Day 32 HepMat co-cultures and Day 32 HepMat HC3x HLC, HSC and Mφ mono-cultures were incubated with 800 μM of OA (Sigma-Aldrich) for 7 days (addition on day 0 and day 3). Day 32 HepMat co-cultures were also incubated with a combination 800 μM of OA and 1 μM Obeticholic acid (OCA) (Company) or 800 μM of OA and 30 μM Elafibranor (ELN) (Company) for 3 days (addition on day 0 only). Expression of inflammatory and fibrogenic genes was determined by RT-1PCR. Supernatants were collected for pro-collagen measurement by ELISA on day 3 and day 7. In addition, co-culture were assayed for presence of steatosis by BODIPY® staining on day 3 and day 7 as follows: Gels were transferred to Glass Bottom plates (cellvis) for live-cell imaging, following incubation with BODIPY® 493/503 for lipids (Thermo Fisher Scientific) and Hoechst (Sigma Aldrich). Sample was visualised and scanned on a laser scanning confocal microscope (LSM 880, Zeiss, Germany),
# (§2) The supernatant was assayed for human TNF-alpha, ILla1pha, and IL6 by ELISA (Biolegend, CA, USA), according to the manufacturer's instructions. Presence of pro-collagen type I was detected by Pro-collagen Type I C-peptide ELISA kit (Takara Bio Inc). Secreted level of TNF-alpha, IL1alpha, IL6 and pro-collagen 1 were normalised for the cell number.
# [2] = phase III; cited from earlier work
# [3] = system: HepMat co-cultures; assay: Oleic acid exposure of HepMat co-cultures (BODIPY, RT-qPCR, ELISA); format: cell-based, human
# Protocol: (§3) d32 HepMat co-cultures were also exposed to 0.8 mM OA for 3 days (1 dose) and 7 days (2 doses).
# as §1, §2
# [4] = system: HC3x HLC, HSC and Mφ mono-cultures; assay: Oleic acid exposure of HepMat mono-cultures; format: cell-based, human
# Protocol: as §3, §1
# The supernatant was assayed for human TNF-alpha, ILla1pha, and IL6 by ELISA (Biolegend, CA, USA), according to the manufacturer's instructions. Presence of pro-collagen type I was detected by Pro-collagen Type I C-peptide ELISA kit (Takara Bio Inc). […]
# [5] = system: iETV2-ECs; assay: Oleic acid treatment of iETV2-ECs; format: cell-based, human; settings: OA treatment
# Protocol: as §3
# [6] = system: PSC-HSCs; assay: TGFβ exposure of HepMat-PSC-HSC cultures (24 h); format: cell-based, human; settings: 25 ng/mL TGFβ
# Protocol: Day 12 HSC expressed ACTA2, PDG1FRα, COL1A1, COL3A1, COL5A2 and LOXL2 but low levels of LRAT (important for Vitamin-A metabolism in quiescent HSCs) and the more recently identified non-fibrotic HSC marker genes, RGS5 and IGFBP5 (FIGS. 3B and 3E). Accutase-harvested d12 PSC-HSCs were embedded at 3×10^5 cells/10 μl HepMat hydrogel, and maintained for 32 days in HSC medium. HSCs survived for 32 days in the HepMat hydrogel (Calcein-AM staining; FIG. 3B). […] Consistently, HSCs cultured in HepMat hydrogels stored retinol, as shown by BODIPY® staining and presence of typical blue autofluorescence elicited by UV light, even when cultured with low concentrations of palmitic acid (FIG. 3B). […] Thus, PSC-HSCs can be maintained for at least 32 days in the HepMat hydrogels. Moreover, culture of HSCs in these hydrogels may at least in part induce a less fibrotic HSC phenotype while still allowing TGFβ-mediated activation.
# TGFβ exposure of HepMat-PSC-HSC cultures: Day 32 HepMat-PSC-HSC mono-cultures hydrogels were exposed to 25 ng/ml of TGFβ (Peprotech) on day 32. Expression of inflammatory and fibrogenic genes was determined by RT-1PCR. Supernatants were collected for pro-collagen measurement by ELISA.
# [7] = system: HepMat co-cultures; assay: TGFβ exposure of HepMat co-cultures (RT-qPCR, ELISA); format: cell-based, human
# Protocol: (§4) It was investigated whether HepMat co-cultures could be used to model liver fibrosis/steatosis, by exposing cultures either to TGFβ or oleic acid (OA). d32 HepMat co-cultures were treated with 25 ng/ml of TGFβ for an additional 3 days (single administration) or 7 days (2 administrations). […] In addition, TGFβ induced a 7±0.4-fold higher level of pro-collagen and 17±3.4-fold higher level of IL6 on day 7 of treatment in HepMat co-culture supernatants. Pro-collagen levels were unchanged in HC3x-HLCs and PSC-Mφ mono-cultures and ±3-fold increase in PSC-HSCs following 3 and 7 days of treatment with TGFβ.
# (§5) TGFβ exposure of HepMat-co-cultures and mono-cultures: Day 32 HepMat co-cultures and dayy 32 HepMat HC3x HLC, HSC and Mφ mono-cultures were incubated with 25 ng/ml TGFβ for 7 days (addition on day 0 and day 3). Expression of inflammatory and fibrogenic genes was determined by RT-qPCR. Supernatants were collected for pro-collagen measurement by ELISA.
# as §2
# [8] = system: HC3x-HLCs; assay: TGFβ exposure of HC3x-HLC HepMat mono-cultures; format: cell-based, human
# Protocol: as §4, §5, §2
# [9] = system: PSC-HSCs; assay: TGFβ exposure of PSC-HSC HepMat mono-cultures (3 and 7 days); format: cell-based, human
# Protocol: as §4, §5, §2
# [10] = system: PSC-Mφs; assay: TGFβ exposure of PSC-Mφ HepMat mono-cultures; format: cell-based, human; settings: supernatants
# Protocol: as §4, §5, §2
# [11] = system: iETV2-ECs; format: cell-based, human
# [12] = system: PSC-Mφs; assay: LPS exposure of HepMat-PSC-Mφ cultures; format: cell-based, human; settings: 100 ng/ml LPS
# Protocol: Mφs were generated from PSCs, using a protocol adapted from van Wilgenburg et al. (2013) PLoS One. 8, e71098 (FIG. 3C). […] Thus, PSC-Mφs could also be functionally maintained for at least 32 days in HepMat hydrogels.
# LPS exposure of HepMat-PSC-MEs cultures: Day 32 HepMat-PSC-M[…]s mono-cultures were exposed to 100 ng/ml of LPS (Sigma-Aldrich). Expression of inflammatory genes was determined by RT-qPCR. Supernatants were collected for inflammatory cytokine measurement by ELISA.
# [13] = 25 ng/ml TGFβ, d32 HepMat co-cultures
compound,measurement,setting,value
"CSc1ccc(C(=O)/C=C/c2cc(C)c(OC(C)(C)C(=O)O)c(C)c2)cc1 [ELN, elafibranor]",COL1A1 transcript levels,[1],inhibited
same,IL6 transcripts,[1],significantly reduced
same,bodipy staining,[1],significant reduction
same,pro-collagen secretion in culture supernatants,[1],no effect
same,production of secreted IL6,[1],did not inhibit
same,improvement of liver fibrosis compared to placebo,[2],not significantly improve
"CCCCCCCC/C=C\CCCCCCCC(=O)O [OA, oleic acid]",IL6 expression,"[3]; 0.8 mM OA, d3",1200 fold
same,IL6 expression,"[3]; 0.8 mM OA, d7",1000 fold
same,"lipid accumulation, BODIPY staining","[3]; 0.8 mM OA, day 3, persisted until day 7",significant lipid accumulation
same,"induction of COL1A1, COL1A3, COL5A2 as well as LOXL2","[3]; 0.8 mM OA, day 7",even greater induction
same,increase in pro-collagen in supernatants,[3]; 3 day after administration of OA,5±0.5 fold
same,increase in pro-collagen in supernatants,[3]; 7 day after administration of OA,12±1.5 fold
same,increase in IL6 in supernatants,[3]; day 7,90±5 fold
same,pro-collagen or inflammatory cytokines in supernatants,[4]; any of the mono-cultures,no significant changes
same,induction in COL1A1 and COL3A1 transcripts,"[4]; mono-cultures, 3 days after OA addition",~9 fold
same,survival of iETV2-ECs,[5],did not survive
TGFβ,secreted levels of pro-collagen,[6]; ELISA,significantly higher levels
same,LRAT transcript levels,[6]; d32 HepMat HSCs,significant decrease
same,expression of COL1A1,[6]; d32 HepMat HSCs,significant increase
same,increase in transcripts for COL1A1,[7]; [13],17±3.5 fold
same,increase in transcripts for COL3A1,[7]; [13],13±3.4 fold
same,increase in transcripts for COL5A2 or LOXL2,[7]; [13],but not COL5A2 or LOXL2
same,induction of IL1α transcripts,[7]; TGFβ exposure for 7 days,7±0.49 fold
same,induction of IL6 transcripts,[7]; TGFβ exposure for 7 days,13±4.3 fold
same,higher level of IL6 in supernatants,"[7]; day 7 of treatment, ELISA",17±3.4 fold
same,higher level of pro-collagen in supernatants,"[7]; day 7 of treatment, ELISA",7±0.4 fold
same,induction of COL1A1 transcripts,[8]; 3 days treatment,9±1.6 fold
same,induction of COL1A1 transcripts,[8]; 7 days treatment,5±0.7 fold
same,Pro-collagen levels,"[8]; TGFβ, supernatants",unchanged
same,increase in pro-collagen levels,[9]; 3 and 7 days of treatment with TGFβ,~3 fold
same,induction of COL1A1 and COL3A1 transcripts,[9]; d3,4±1.1 fold
same,Pro-collagen levels,[10],unchanged
same,survival of iETV2-ECs,[11],did not survive
lipopolysaccharide [LPS],"secretion of TNFα, IL1α and IL6","[12]; ELISA, significant for IL6",increased secretion of all three cytokines
same,"expression of TNFα, IL1α and IL6","[12]; additional 48 hours, RT-qPCR",significantly induced
